Results reported in PMC3731299, “Isoniazid Inhibits the Heme-Based Reactivity of Mycobacterium tuberculosis Truncated Hemoglobin N” (PLoS ONE, 2013).
Where two headings read alike, the source gives them in different places. Marks after values point to notes of the source that are not given here.

Assays:
Mt-trHbN(II) [1] = target: T1, Mt-trHbN(II) (Mycobacterium tuberculosis, UniProt P9WN25); format: binding
T1 construct: made in house

Sperm whale Mb(II) [2] = system: Sperm whale Mb(II); design: method as in PMID 3733708; conditions: pH 7.0, 20.0°C; cited from earlier work
Mt-trHbN(II) [3] = target: T1, Mt-trHbN(II); test: O2 binding to Mt-trHbN(II) in the absence and presence of isoniazid (tonometer method)
Protocol: The value of B was determined by the tonometer method adding small volumes of air to the Mt-trHbN(II) solution (1.3×10^−6 M), in the absence and presence of isoniazid ( = 1.0×10^−2 M; B ^obs).

Sperm whale Mb(II) [4] = target: Sperm whale Mb(II); design: method as in ref 58 = [58]; 58 Antonini E, Brunori M (1971) Hemoglobin and myoglobin in their reactions with ligands. Amsterdam, London: North Holland Publishing Co.; conditions: read-out: B for O2 binding to sperm whale Mb(II); pH 7.0, 20.0°C; cited from earlier work

Row | SMILES | amplitude (1 – a) of the CO binding process (slow phase) (Mt-trHbN(II) [1]) | amplitude a of the CO binding process (Mt-trHbN(II) [1]) | amplitude a of the CO binding process (isoniazid-free fraction, fast phase) (Mt-trHbN(II) [1]) | f obs, pseudo-first order rate constant for CO binding (Mt-trHbN(II) [1]) [s⁻¹] | f obs, pseudo-first order rate constant for CO binding (fast phase) (Mt-trHbN(II) [1]) [s⁻¹] | f obsi, pseudo-first order rate constant for CO binding in the presence of isoniazid (slow phase) (Mt-trHbN(II) [1]) [s⁻¹] | second-order association rate constant f on for CO binding to Mt-trHbN(II) (Mt-trHbN(II) [1]; pH 7) | f off for CO binding to sperm whale Mb(II) (Sperm whale Mb(II) [2]) | f on for CO binding to sperm whale Mb(II) (Sperm whale Mb(II) [2]) | Kd (Mt-trHbN(II) [3]; [isoniazid] = 1.0×10^−2 M, from B and D, read-out: B obs calculated according to Equation 16) [nM] | P 50 for O2 binding to Mt-trHbN(II) in the presence of isoniazid (Mt-trHbN(II) [3]; [isoniazid] = 1.0×10^−2 M, corresponds to B obs) | P 50 for O2 binding to Mt-trHbN(II) (Mt-trHbN(II) [3]; absence of isoniazid, corresponds to B) | Kd (Mt-trHbN(II) [3]; read-out: dissociation equilibrium constant B for O2 binding to Mt-trHbN(II), absence of isoniazid, pH 7.0, 20.0°C, Equation 15) [nM] | Kd (Sperm whale Mb(II) [4]) [nM]
1 | [C-]#[O+] [CO] | 0.62 | 1 | 0.38 | 170 | 170 | 1.5 | f on = (3.8±0.5)×10^6 M^−1 s^−1 | f off = 1.9×10^−2 s^−1h | f on = 5.1×10^5 M^−1 s^−1 ^h | – | – | – | – | –
2 | O=O [O2] | – | – | – | – | – | – | – | – | – | 410 | (2.3±0.3)×10^−1 mm Hg | (2.4±0.4)×10^−2 mm Hg | 44 | 520
